The values that follow come from ChEMBL document CHEMBL3244226, “5-Cyano-2'-deoxyuridine 5'-phosphate: a potent competitive inhibitor of thymidylate synthetase” (J Med Chem, 1979).

One experiment concerns the target T1, Thymidylate synthase (Lactobacillus casei, UniProt P00469).
T1 sequence (P00469 whole entry): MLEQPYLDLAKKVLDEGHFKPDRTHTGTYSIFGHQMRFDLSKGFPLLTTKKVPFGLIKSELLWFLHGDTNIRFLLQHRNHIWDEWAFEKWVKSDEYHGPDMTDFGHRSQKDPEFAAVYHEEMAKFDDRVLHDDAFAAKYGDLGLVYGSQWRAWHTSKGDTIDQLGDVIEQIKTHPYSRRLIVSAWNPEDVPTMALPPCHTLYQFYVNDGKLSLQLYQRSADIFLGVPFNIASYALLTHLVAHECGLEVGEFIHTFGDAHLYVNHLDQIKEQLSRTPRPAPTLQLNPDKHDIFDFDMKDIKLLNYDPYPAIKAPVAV
Briefly: Competitive inhibition of thymidylate synthase purified from methotrexate-resistant Lactobacillus casei using 2'-deoxy[5-3H]uridine 5'-phosphate by radioisotope assay. Also noted: species or system Lacticaseibacillus casei.

In experiment [1] the target is T2, Thymidylate synthase (Lactobacillus casei) (UniProt P00469).
T2 sequence (whole entry): T1 sequence (P00469 whole entry)
Briefly: Irreversible inhibition of thymidylate synthase purified from methotrexate-resistant Lactobacillus casei using 2'-deoxy[5-3H]uridine 5'-phosphate preincubated at 4 uM for 12 mins in absence of co-factor. The note with it: Lacticaseibacillus casei.

Activity calls are given as the source filed them. The calls are words filed in the database; no cut-off is given here.

Broadly, the Ki is a measure of affinity in units of concentration, obtained from inhibition or displacement. At Thymidylate synthase, `O=c1[nH]c(=O)n([C@H]2C[C@H](O)[C@@H](COP(=O)(O)O)O2)cc1[N+](=O)[O-]` had a Ki of 29 nM.
As for `N#Cc1cn([C@H]2C[C@H](O)[C@@H](COP(=O)(O)O)O2)c(=O)[nH]c1=O`, the Ki on Thymidylate synthase was 550 nM. For the same compound, in experiment [1], the inhibition result was “inactive”.
On Thymidylate synthase, `O=c1[nH]c(=O)n([C@H]2C[C@H](O)[C@@H](COP(=O)(O)O)O2)cc1S` registered a Ki of 40 nM.
